Measured values taken from patent publication US20250129074A1, “CHIMERIC COMPOUND FOR TARGETED DEGRADATION OF ANDROGEN RECEPTOR PROTEIN, PREPARATION METHOD THEREFOR, AND MEDICAL USE THEREOF” (Jiangsu Hengrui Pharmaceuticals Co., Ltd., priority 2021, published 2025).
Where two headings read alike, the source gives them in different places.

What was measured:
[1] = system: LNCap-FGC xenograft tumors; experiment: Pharmacodynamic testing: LNCap-FGC subcutaneous xenograft in castrated CB17-SCID mice; assay type: in vivo; settings: i.g.; for Mean tumor volume D 21 / Number of remaining animals/group / TGI D 21: qd/21 d
Description: To evaluate the inhibition of the growth of castration-resistant prostate cancer LNCap-FGC subcutaneous xenograft tumors in male CB17-SCID mice by compounds of the present disclosure.
Test animals: CB17-SCID male mice, purchased from Beijing Vital River Laboratory Animal Technology Co., Ltd. (certificate No. SCXK(Beijing)2016-0006; animal certification No. 110011220107542683), weighing about 20.54-26.72 g on purchase. Housing conditions: 5 animals/cage, a 12/12-hour light/dark cycle, a constant temperature of 23±1° C. with humidity at 50 to 60%, ad libitum access to food and water.
0.2 mL (10×10^6 cells+Matrigel) of LNCaP FGC cells (Matrigel was added, in a 1:1 ratio by volume) in the logarithmic growth phase was subcutaneously inoculated into the right upper limb of each mouse. When the mean tumor volume reached 77 mm^3, male mice with stable tumor growth were selected and subjected to orchiectomy followed by three days of analgesic care. When the mean tumor volume reached 172 mm^3, grouping and administration were started. The day of grouping was defined as DO, and intragastric administration was started and performed once a day for 21 days. The 21th day after administration was defined as D21 (Table 7). For tumor-bearing mice, the tumor volume was measured with a vernier caliper and the body weight was measured with a balance twice a week, and data were recorded.
All data were plotted and statistically analyzed using Excel and GraphPad Prism 8 software.
The calculation formula for tumor volume (V) was: V=½×a×b^2, where a and b represent length and width, respectively.
Relative tumor proliferation rate T/C(%)=(T-T0)/(C-C0)×100 (%), where T and C represent the tumor volumes of a treatment group and the control group at the end of the experiment; T0 and C0 represent the tumor volumes at the beginning of the experiment.

androgen receptor (AR) = target: T1, androgen receptor (AR) (Homo sapiens, UniProt P10275, T878A); experiment: Degradation activity on androgen receptor in LNCaP cells (AR ELISA); assay type: cell-based; settings: for Dmax: read-out: Max (maximum AR degradation rate)
T1 construct: host or cells: LNCaP human prostate cancer cells
T1 sequence (P10275 1-920 T878A): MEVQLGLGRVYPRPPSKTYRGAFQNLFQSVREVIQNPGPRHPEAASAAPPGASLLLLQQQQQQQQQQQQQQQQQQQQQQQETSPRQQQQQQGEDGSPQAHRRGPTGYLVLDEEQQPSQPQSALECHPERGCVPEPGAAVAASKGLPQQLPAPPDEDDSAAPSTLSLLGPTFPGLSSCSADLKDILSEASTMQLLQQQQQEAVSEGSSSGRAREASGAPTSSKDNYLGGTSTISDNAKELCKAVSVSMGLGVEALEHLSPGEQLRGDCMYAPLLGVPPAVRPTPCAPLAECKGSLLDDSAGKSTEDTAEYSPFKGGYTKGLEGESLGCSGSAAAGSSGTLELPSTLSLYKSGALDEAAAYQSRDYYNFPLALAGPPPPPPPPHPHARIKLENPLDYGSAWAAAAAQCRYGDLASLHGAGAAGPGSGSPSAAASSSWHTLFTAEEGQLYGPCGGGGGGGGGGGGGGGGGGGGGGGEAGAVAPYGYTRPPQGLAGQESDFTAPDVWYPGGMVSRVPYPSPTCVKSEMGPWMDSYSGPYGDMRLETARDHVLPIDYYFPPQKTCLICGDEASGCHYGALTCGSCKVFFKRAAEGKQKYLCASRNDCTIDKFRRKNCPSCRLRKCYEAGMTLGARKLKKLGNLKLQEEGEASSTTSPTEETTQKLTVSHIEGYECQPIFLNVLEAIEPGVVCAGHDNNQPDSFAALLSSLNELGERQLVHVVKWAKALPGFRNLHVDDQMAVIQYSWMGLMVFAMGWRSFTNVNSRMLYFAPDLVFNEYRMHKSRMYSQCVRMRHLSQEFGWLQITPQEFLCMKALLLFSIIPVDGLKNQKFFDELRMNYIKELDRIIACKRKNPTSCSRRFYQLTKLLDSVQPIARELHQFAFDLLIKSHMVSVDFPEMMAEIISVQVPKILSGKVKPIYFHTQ
How it was run: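 LNCaP cells were treated with compound, with a 0.5% DMSO blank control, for 24 h at 37 °C, 5% CO2. Cells were then lysed and the lysate clarified. AR protein level was read by ELISA.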

LNCaP cells = experiment: Inhibition of LNCaP proliferation (CellTiter-Glo); assay type: cell-based; settings: Homo sapiens, 144 h, 0.1 nM R1881, six days; for Emax: read-out: Max (maximum proliferation inhibition rate)
Description: The plate was incubated in a 37° C., 5% CO2 cell incubator for three days. […] A blank control cell well containing 0.5% DMSO and a cell-free vehicle control well were set up. The plate was incubated in a 37° C., 5% CO2 cell incubator for six days.

[2] = Pharmacokinetic evaluation in SD rats; settings: both sexes, rat, in vivo, po, i.g., 2.0 mg/kg; for Vd/F: read-out: Apparent distribution volume Vz/F; for AUC(0-t): read-out: Area under curve AUC0-t; for CL/F: read-out: Clearance rate CL/F; for half-life: read-out: Half-life T½ (converted); for Cmax: read-out: Plasma concentration Cmax
Description: SD rats were used as test animals.
32 SD rats, provided by Vital River Laboratory Animal Co., Ltd., with an equal number of males and females, were evenly divided into 8 groups. The animals were fasted overnight and then intragastrically dosed.
The dose administered was 2.0 mg/kg, and the volume was 10.0 mL/kg.
The procedure starting from the blood collection to the centrifugation was performed under ice-bath conditions. Access to food was given 2 hours after administration.

[3] = 0.1 nM R1881, 24 hours, read-out: LNCaP DC50

SMILES | DC50 (androgen receptor (AR); [3]) [nM] | Dmax (androgen receptor (AR); 0.1 nM R1881, 24 hours) [%] | IC50 (LNCaP cells) [nM] | Emax (LNCaP cells) [%] | Vd/F [2] [L/kg] | AUC(0-t) [2] [ng·h/mL] | CL/F [2] [mL/min/kg] | half-life [2] [min] | Cmax [2] [ng/mL] | also measured
N#Cc1ccc(O[C@H]2CC[C@H](NC(=O)c3ccc(N4CCC(CN5CCN(c6cc7c(cc6F)C(=O)N(C6CCC(=O)NC6=O)C7=O)CC5)CC4)nn3)CC2)cc1Cl (some centres unmarked) [ARV-110, reference compound] | – | – | – | – | – | – | – | – | – | Mean tumor volume D 21 ([1]; 1 mpk): 789 mm^3; Number of remaining animals/group ([1]; 1 mpk): 8/8; TGI D 21 ([1]; 1 mpk): 57%; Mean tumor volume D 21 ([1]; 10 mpk): 293 mm^3; Number of remaining animals/group ([1]; 10 mpk): 8/8; TGI D 21 ([1]; 10 mpk): 92%
C[C@H]1CC2(CCN(c3ccc(C(=O)N4CCC(CN5CCN(c6cccc(NC7CCC(=O)NC7=O)c6)CC5)CC4)nc3)CC2)CN1c1ccc(C#N)c(Cl)c1 (stereo partly drawn) [Example 12, 2-Chloro-4-((3S)-8-(6-(4-((4-(3-((2,6-dioxopiperidin-3-yl)amino)phenyl)piperazin-1-yl)methyl)piperidine-1-carbonyl)pyridin-3-yl)-3-methyl-2,8-diazaspiro[4.5]decan-2-yl)benzonitrile] | 1.3 | 97 | 48 | 73 | 63.1 | 304 | 139 | 311 | 37.4 | –
C[C@H]1CC2(CCN(c3ccc(C(=O)N4CCC(CN5CCN(c6cc(NC7CCC(=O)NC7=O)ccc6F)CC5)CC4)cc3)CC2)CN1c1ccc(C#N)c(Cl)c1 (stereo partly drawn) [Example 23, 2-Chloro-4-((3S)-8-(4-(4-((4-(5-((2,6-dioxopiperidin-3-yl)amino)-2-fluorophenyl)piperazin-1-yl)methyl)piperidine-1-carbonyl)phenyl)-3-methyl-2,8-diazaspiro[4.5]decan-2-yl)benzonitrile] | 6.1 | 96 | 41 | 76 | 26.3 | 703 | 51.2 | 356 | 81.6 | –
C[C@H]1CC2(CCN(c3ccc(C(=O)N4CCC(CN5CCN(c6cccc(NC7CCC(=O)NC7=O)c6)CC5)CC4)cc3)CC2)CN1c1ccc(C#N)c(Cl)c1 (stereo partly drawn) [Example 11, 2-Chloro-4-((3S)-8-(4-(4-((4-(3-((2,6-dioxopiperidin-3-yl)amino)phenyl)piperazin-1-yl)methyl)piperidine-1-carbonyl)phenyl)-3-methyl-2,8-diazaspiro[4.5]decan-2-yl)benzonitrile] | 7.3 | 98 | 82 | 68 | 34.8 | 644 | 60.2 | 405 | 69.4 | –
C[C@H]1CC2(CCN(c3ccc(C(=O)N4CCC(CN5CCN(c6cccc(N[C@H]7CCC(=O)NC7=O)c6)CC5)CC4)cc3F)CC2)CN1c1ccc(C#N)c(Cl)c1 [Example 15-1, 2-Chloro-4-((S)-8-(4-(4-((4-(3-(((S)-2,6-dioxopiperidin-3-yl)amino)phenyl)piperazin-1-yl)methyl)piperidine-1-carbonyl)-2-fluorophenyl)-3-methyl-2,8-diazaspiro[4.5]decan-2-yl)benzonitrile] | – | – | – | – | – | – | – | – | – | effect on the body weight of the mice ([1]; 1.5, 5 and 15 mpk, once daily for 21 days): little effect; Mean tumor volume D 21 ([1]; 1.5 mpk): 255 mm^3; Number of remaining animals/group ([1]; 1.5 mpk): 8/8; TGI D 21 ([1]; 1.5 mpk): 94%; Mean tumor volume D 21 ([1]; 5 mpk): 188 mm^3; Number of remaining animals/group ([1]; 5 mpk): 8/8; TGI D 21 ([1]; 5 mpk): 99%; Mean tumor volume D 21 ([1]; 15 mpk): 117 mm^3; Number of remaining animals/group ([1]; 15 mpk): 8/8; TGI D 21 ([1]; 15 mpk): 104%
C[C@H]1CC2(CCN(c3ccc(C(=O)N4CCC5(CC4)CC(N4CCN(c6ccc(N7CCC(=O)NC7=O)cc6)CC4)C5)cc3)CC2)CN1c1ccc(C#N)c(Cl)c1 [Example 28, (S)-2-Chloro-4-(8-(4-(2-(4-(4-(2,4-dioxotetrahydropyrimidin-1(2H)-yl)phenyl)piperazin-1-yl)-7-azaspiro[3.5]nonane-7-carbonyl)phenyl)-3-methyl-2,8-diazaspiro[4.5]decan-2-yl)benzonitrile] | 5.8 | 97 | 17 | 61 | 66.6 | 315 | 108 | 430 | 25.5 | –
C[C@H]1CC2(CCN(c3ccc(C(=O)N4CCC(CN5CCC(c6ccc(NC7CCC(=O)NC7=O)cc6F)CC5)CC4)cc3)CC2)CN1c1ccc(C#N)c(Cl)c1 (stereo partly drawn) [Example 27, 2-Chloro-4-((3S)-8-(4-(4-((4-(4-((2,6-dioxopiperidin-3-yl)amino)-2-fluorophenyl)piperidin-1-yl)methyl)piperidine-1-carbonyl)phenyl)-3-methyl-2,8-diazaspiro[4.5]decan-2-yl)benzonitrile] | 7.7 | 96 | 7.9 | 64 | – | – | – | – | – | –
C[C@H]1CC2(CCN(c3ccc(C(=O)N4CCC(N5CCN(c6ccc(C(=O)NC7CCC(=O)NC7=O)c(F)c6)CC5)CC4)cc3)CC2)CN1c1ccc(C#N)c(Cl)c1 (stereo partly drawn) [Example 1, 4-(4-(1-(4-((S)-2-(3-Chloro-4-cyanophenyl)-3-methyl-2,8-diazaspiro[4.5]decan-8-yl)benzoyl)piperidin-4-yl)piperazin-1-yl)-N-(2,6-dioxopiperidin-3-yl)-2-fluorobenzamide] | – | 89 | 183 | 63 | – | – | – | – | – | DC50 (androgen receptor (AR); read-out: LNCaP DC50, 0.1 nM R1881, 24 hours): 10.6 nM
C[C@H]1CC2(CCN(c3ccc(C(=O)N4CCC(CN5CCC(c6cccc(NC7CCC(=O)NC7=O)c6)CC5)CC4)cc3)CC2)CN1c1ccc(C#N)c(Cl)c1 (stereo partly drawn) [Example 19, 2-Chloro-4-((3S)-8-(4-(4-((4-(3-((2,6-dioxopiperidin-3-yl)amino)phenyl)piperidin-1-yl)methyl)piperidine-1-carbonyl)phenyl)-3-methyl-2,8-diazaspiro[4.5]decan-2-yl)benzonitrile] | 1.8 | 96 | 60 | 68 | – | – | – | – | – | –
C[C@H]1CC2(CCN(c3ccc(C(=O)N4CCC(CN5CCN(c6ccc(C(=O)NC7CCC(=O)NC7=O)nc6)CC5)CC4)cc3)CC2)CN1c1ccc(C#N)c(Cl)c1 (stereo partly drawn) [Example 4, 5-(4-((1-(4-((S)-2-(3-Chloro-4-cyanophenyl)-3-methyl-2,8-diazaspiro[4.5]decan-8-yl)benzoyl)piperidin-4-yl)methyl)piperazin-1-yl)-N-(2,6-dioxopiperidin-3-yl)picolinamide] | 20.2 | 92 | 135 | 58 | – | – | – | – | – | –
